Earlier results, collected in US20180344690A1, “Methods and Formulation for Enhancing Response to Radiotherapy” (The Board of Trustees of the Leland Stanford Junior …, priority 2017, published 2018).

How the values were obtained:
multiple myeloma (MM) = details: cited from earlier work
APL = details: untreated control 18 days; cytarabine vs cytarabine+Plerixafor p<0.0006; cited from earlier work

Row | SMILES | tumor progression (multiple myeloma (MM); bortezomib vs control P=0.041, combination vs control P=0.001, vs bortezomib alone P=0.021) | tumor involvement in BM, liver and spleen (multiple myeloma (MM); mouse, in vivo) | median overall survival (APL) [days]
1 | CC(C)C[C@H](NC(=O)[C@H](Cc1ccccc1)NC(=O)c1cnccn1)B(O)O [bortezomib] | reduction in tumor progression compared with control | significant decrease of tumor cells | 
2 | Nc1ccn([C@@H]2O[C@H](CO)[C@@H](O)[C@@H]2O)c(=O)n1 [cytarabine] |  |  | 23
